Measured values from article PMC10575282, “Elettaria cardamomum (L.) Maton Essential Oil: An Interesting Source of Bioactive Specialized Metabolites as Inhibitors of Acetylcholinesterase and Butyrylcholinesterase” (Plants, 2023).

How the values were obtained:
[1] = molecular target: T1, butyrylcholinesterase (BChE) from equine serum (Equus caballus, UniProt P81908); experiment: biochemical; assay type: biochemical; settings: for BChE Inhibition (%): fractions/compounds at the concentrations in which they are present in EO, average of three assays
T1 construct: butyrylcholinesterase (BChE) from equine serum; purchased Merck Life Science S.r.l; (Milan, Italy); host or cells: equine serum
Procedure: (§1) The protocol used in this study was that of Rhee et al., with slight modifications. The following buffers were used: buffer A (50 mM Tris-HCl pH 8), buffer B (50 mM Tris-HCl pH 8, with the addition of 0.1% of bovine albumin and 0.1% of TWEEN20), and buffer C (50 mM Tris-HCl pH 8, with the addition of 0.1 M of NaCl and 0.02 M of MgCl2 6H2O). The enzyme solution of 0.22 U/mL was prepared in buffer B. The acetylthiocholine iodide (ATCI) solution of 1.5 mM was prepared in Millipore water, while the butyrylthiocholine iodide (BTCI) solution was prepared in buffer A. Ellman’s reagent solution at 3 mM was prepared in buffer C.
(§2) The reaction mixture was incubated at 30 °C for 6 min. The absorbance values were measured at 405 nm after incubation. […] The control and sample blank solutions were prepared by replacing 150 µL of the enzyme solution with 150 µL of buffer A.
(§3) The percentage of the AChE or BChE inhibition was measured according to the equation below:% Inhibition = ΔA (Control) − ΔA (Sample)/ΔA (Control) × 100 ΔA (Control) = A412 (Control) − A412 (Control Blank) ΔA(Sample) = A412 (Sample) − A412 (Sample Blank)
(§4) The concentration–response curve was determined for each inhibitor by plotting the inhibitory activity against AChE or BChE as a function of the inhibitor concentration in the reaction mixture.
(§5) The Microsoft Excel programme was used for the Anova test. For the IC50 calculation, an online programme from AAT Bioquest was used (https://www.aatbio.com/tools/ic50-calculator, accessed on 10 May 2023).

[2] = system: AChE; settings: cited from earlier work
[3] = molecular target: T2, acetylcholinesterase (AChE) from Electrophorus electricus (Electrophorus electricus, UniProt O42275); experiment: biochemical; assay type: biochemical; settings: for AChE Inhibition (%): fractions/compounds at the concentrations in which they are present in EO, average of three assays; for IC50 AChE: ± standard deviation, n = 3
T2 construct: purchased Merck Life Science S.r.l; (Milan, Italy)
Procedure: as §1, §2, §3, §4, §5

[4] = system: BChE; parameters: method as in doi:10.1016/j.jff.2020.103892; settings: cited from earlier work

T2 sequence (O42275 24-633): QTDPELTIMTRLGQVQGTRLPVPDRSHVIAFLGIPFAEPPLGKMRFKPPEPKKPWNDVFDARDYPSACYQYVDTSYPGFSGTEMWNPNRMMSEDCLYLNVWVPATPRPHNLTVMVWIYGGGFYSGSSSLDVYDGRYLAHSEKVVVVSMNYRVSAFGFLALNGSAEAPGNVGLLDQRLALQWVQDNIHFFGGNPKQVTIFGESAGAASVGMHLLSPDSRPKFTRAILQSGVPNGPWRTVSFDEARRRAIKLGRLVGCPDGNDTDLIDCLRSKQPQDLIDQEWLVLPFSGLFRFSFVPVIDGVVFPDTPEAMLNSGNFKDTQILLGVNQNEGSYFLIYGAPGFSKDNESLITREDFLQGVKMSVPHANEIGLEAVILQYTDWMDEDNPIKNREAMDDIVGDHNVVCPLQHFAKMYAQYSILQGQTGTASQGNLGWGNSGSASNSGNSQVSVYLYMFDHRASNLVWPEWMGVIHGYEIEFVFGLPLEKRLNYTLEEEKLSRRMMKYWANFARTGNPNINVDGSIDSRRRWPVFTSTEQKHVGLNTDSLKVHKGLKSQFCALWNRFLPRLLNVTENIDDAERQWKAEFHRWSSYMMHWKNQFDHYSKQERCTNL
T1 sequence (P81908 whole entry): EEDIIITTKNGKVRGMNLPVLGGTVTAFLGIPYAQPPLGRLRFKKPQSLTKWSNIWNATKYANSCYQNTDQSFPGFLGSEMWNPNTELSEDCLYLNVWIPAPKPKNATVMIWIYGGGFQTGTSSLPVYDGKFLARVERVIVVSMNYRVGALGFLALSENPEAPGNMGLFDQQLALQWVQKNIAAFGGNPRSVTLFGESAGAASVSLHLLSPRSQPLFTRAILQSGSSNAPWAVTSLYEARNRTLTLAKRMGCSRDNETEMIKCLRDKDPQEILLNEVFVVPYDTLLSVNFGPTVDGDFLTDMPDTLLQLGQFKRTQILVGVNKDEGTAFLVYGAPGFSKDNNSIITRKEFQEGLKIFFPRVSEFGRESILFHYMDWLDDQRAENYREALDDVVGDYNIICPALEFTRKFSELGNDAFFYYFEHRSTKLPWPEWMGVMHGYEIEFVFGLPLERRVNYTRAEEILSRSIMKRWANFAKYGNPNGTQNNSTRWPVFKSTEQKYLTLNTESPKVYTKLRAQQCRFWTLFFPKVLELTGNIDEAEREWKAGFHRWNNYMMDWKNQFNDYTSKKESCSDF

Question: With C=CC(C)(O)CCC=C(C)C (stereo not shown) [Linalool, linalool] as the compound, how does the “BChE Inhibition (%)” value [1] read?
Answer: 5.0%

Question: What about the “BChE Inhibition (%)” value ([1]; listed as linalool) of the same compound?
Answer: active

Question: Which AChE inhibition ([2]; mechanism still unclear) does the source give for CC12CCC(CC1)C(C)(C)O2 [1,8-cineole] here?
Answer: known to actively inhibit AChE

Question: And the “IC50 BChE” value ([1]; ± standard deviation, n = 3)?
Answer: inactive inhibitor of BChE

Question: What about the “IC50 BChE” value ([1]; ± standard deviation, n = 3, listed as 1,8-Cineole) of the same compound?
Answer: not active

Question: What about the IC50 [3] of the same compound?
Answer: 91.4 µM

Question: What about the “AChE Inhibition (%)” value [3] of the same compound?
Answer: 55.4%

Question: Which “Type of inhibition of AChE” value [2] does the source give for CC(=O)OC(C)(C)C1CC=C(C)CC1 (stereo not drawn) [α-terpinyl acetate] here?
Answer: competitive inhibition

Question: What about the “Type of inhibition of BChE” value [4] of the same compound?
Answer: mixed inhibition

Question: And the “BChE Inhibition (%)” value [1]?
Answer: 39.0%

Question: What about the IC50 ([1]; ± standard deviation, n = 3) of the same compound?
Answer: 112 µM

Question: And the “AChE Inhibition (%)” value [3]?
Answer: 17.0%

Question: And the “IC50 AChE” value [3]?
Answer: 50% inhibition was never achieved

Question: And the “IC50 AChE” value ([3]; listed as α-Terpinyl acetate)?
Answer: Activity lower than 50%

Question: Which “BChE Inhibition (%)” value [1] does the source give for C=CC(C)(CCC=C(C)C)OC(C)=O (stereo not shown) [Linalyl acetate, linalyl acetate] here?
Answer: 10.3%

Question: And the “BChE Inhibition (%)” value ([1]; listed as linalyl acetate)?
Answer: active
